In patent publication US20230055237A1, “COMPOUNDS AND METHODS FOR THE TREATMENT OF CYSTIC FIBROSIS” (Flatley Discovery Lab, LLC, priority 2019, published 2023):

Biological target: T1, CFTR (Homo sapiens, UniProt P13569, DEL508-508)
T1 construct: Primary CF airway epithelial cells were obtained from the UNC Cystic Fibrosis Tissue Procurement and Cell Culture Core; host or cells: primary CF airway epithelial cells, differentiated at the air-liquid interface
Test: Equivalent current assay in primary CF airway epithelial cells (NAUC, combination with 1st site corrector FDL169 or VX-809)
Format: cell-based
Details: 37° C., 24 h

[1] = test compound 1 μM in combination with 1st site corrector VX-809 (3 μM)
[2] = test compound 3 μM in combination with 1st site corrector VX-809 (3 μM)
[3] = test compound 10 μM in combination with 1st site corrector VX-809 (3 μM)

T1 sequence (P13569 with tags, fused parts or gaps DEL508-508): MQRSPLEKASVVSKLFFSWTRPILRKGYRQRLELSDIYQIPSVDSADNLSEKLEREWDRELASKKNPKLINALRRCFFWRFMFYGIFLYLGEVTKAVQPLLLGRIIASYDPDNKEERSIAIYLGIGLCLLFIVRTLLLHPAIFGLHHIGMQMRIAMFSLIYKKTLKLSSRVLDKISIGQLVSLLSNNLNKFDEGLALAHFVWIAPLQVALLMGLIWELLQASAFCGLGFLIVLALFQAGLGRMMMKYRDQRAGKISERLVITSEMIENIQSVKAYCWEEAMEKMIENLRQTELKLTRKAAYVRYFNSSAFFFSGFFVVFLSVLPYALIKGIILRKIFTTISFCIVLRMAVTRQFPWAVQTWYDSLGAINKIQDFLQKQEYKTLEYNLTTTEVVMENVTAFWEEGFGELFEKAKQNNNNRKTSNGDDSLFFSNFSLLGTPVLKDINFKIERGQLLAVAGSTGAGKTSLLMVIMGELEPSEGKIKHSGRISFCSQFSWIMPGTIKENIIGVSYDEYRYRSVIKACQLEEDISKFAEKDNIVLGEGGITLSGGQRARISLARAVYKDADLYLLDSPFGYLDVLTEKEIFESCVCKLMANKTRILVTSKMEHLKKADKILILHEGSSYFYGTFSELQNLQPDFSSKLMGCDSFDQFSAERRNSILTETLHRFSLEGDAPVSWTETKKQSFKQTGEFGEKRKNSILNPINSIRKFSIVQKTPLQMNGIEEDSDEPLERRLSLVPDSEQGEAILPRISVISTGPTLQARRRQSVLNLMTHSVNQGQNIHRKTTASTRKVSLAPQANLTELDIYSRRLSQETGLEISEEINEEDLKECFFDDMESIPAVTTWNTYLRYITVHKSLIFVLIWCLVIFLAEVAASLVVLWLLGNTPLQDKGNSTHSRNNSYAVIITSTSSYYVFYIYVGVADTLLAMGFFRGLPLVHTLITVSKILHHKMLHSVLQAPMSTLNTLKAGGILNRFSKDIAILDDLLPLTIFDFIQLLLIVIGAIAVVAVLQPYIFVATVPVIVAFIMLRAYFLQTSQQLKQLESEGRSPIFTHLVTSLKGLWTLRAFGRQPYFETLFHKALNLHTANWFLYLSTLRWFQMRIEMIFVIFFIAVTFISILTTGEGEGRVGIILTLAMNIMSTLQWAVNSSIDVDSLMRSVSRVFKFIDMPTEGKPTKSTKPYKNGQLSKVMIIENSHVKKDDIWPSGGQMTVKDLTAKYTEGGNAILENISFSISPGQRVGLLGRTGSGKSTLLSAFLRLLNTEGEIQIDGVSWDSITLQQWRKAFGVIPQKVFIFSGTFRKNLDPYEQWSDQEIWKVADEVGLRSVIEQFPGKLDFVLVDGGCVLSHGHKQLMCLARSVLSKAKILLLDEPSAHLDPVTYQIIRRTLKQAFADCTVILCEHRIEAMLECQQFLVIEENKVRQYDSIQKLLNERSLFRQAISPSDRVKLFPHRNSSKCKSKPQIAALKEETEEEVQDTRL

Row | SMILES | Nauc @ 1 μM (test compound 1 μM in combination with 1st site corrector FDL169 (3 μM)) | Nauc @ 3 μM (test compound 3 μM in combination with 1st site corrector FDL169 (3 μM)) | Nauc @ 10 μM (test compound 10 μM in combination with 1st site corrector FDL169 (3 μM)) | Nauc @ 1 μM [1] | Nauc @ 3 μM [2] | Nauc @ 10 μM [3]
1 | O=C(O)[C@H]1[C@@H](C(=O)N(CC2CC2)c2cc(Cl)cc(Cl)c2)[C@H]2CC(F)(F)CN2[C@]12C(=O)N(C1CC1)c1c(Cl)cc(Cl)cc12 [Example 208, (1′R,2′S,3R,7a′R)-5,7-dichloro-1-cyclopropyl-1′-((cyclopropylmethyl)(3,5-dichlorophenyl)carbamoyl)-6′,6′-difluoro-2-oxo-1′,2′,5′,6′,7′,7a′-hexahydrospiro[indoline-3.3′-pyrrolizine]-2′-carboxylic acid] | ++ (NAUC “++” refers to an observed NAUC 170-140% of positive control) | ++ (NAUC “++” refers to an observed NAUC 170-140% of positive control) | + (NAUC “+” refers to an observed NAUC <140% of positive control) | – | – | –
2 | CON(C)C(=O)[C@H]1[C@@H](C(=O)Nc2cc(Cl)cc(Cl)c2)[C@H]2CC(F)(F)CN2[C@]12C(=O)Nc1c(Cl)cc(Cl)cc12 [Example 227, (1′R,2′S,3R,7a′R)-5,7-dichloro-N1′-(3,5-dichlorophenyl)-6′,6′-difluoro-N2′-methoxy-N2′-methyl-2-oxo-1′,2′,5′,6′,7′,7a′-hexahydrospiro [indoline-3,3′-pyrrolizine]-1′,2′-dicarboxamide] | – | – | – | + (NAUC “+” refers to an observed NAUC <140% of positive control) | ++ (NAUC “++” refers to an observed NAUC 170-140% of positive control) | ++ (NAUC “++” refers to an observed NAUC 170-140% of positive control)
3 | NC(=O)[C@H]1[C@@H](C(=O)Nc2cc(Cl)cc(Cl)c2)[C@H]2CC(F)(F)CN2[C@]12C(=O)Nc1c(Cl)cc(Cl)cc12 [Example 228, (1′R,2′S,3R,7a′R)-5,7-dichloro-N1′-(3,5-dichlorophenyl)-6′,6′-difluoro-2-oxo-1′,2′,5′,6′,7′,7a′-hexahydrospiro[indoline-3,3′-pyrrolizine]-1′,2′-dicarboxamide] | – | – | – | + (NAUC “+” refers to an observed NAUC <140% of positive control) | + (NAUC “+” refers to an observed NAUC <140% of positive control) | + (NAUC “+” refers to an observed NAUC <140% of positive control)
4 | CONC(=O)[C@H]1[C@@H](C(=O)Nc2cc(Cl)cc(Cl)c2)[C@H]2CCCN2C12C(=O)Nc1c(Cl)cc(Cl)cc12 (stereo partly drawn) [Example 233, (1′R,2′S,7a′R)-5,7-dichloro-N1′-(3,5-dichlorophenyl)-N2′-methoxy-2-oxo-1′,2′,5′,6′,7′,7a′-hexahydrospiro[indoline-3,3′-pyrrolizine]-1,2′-dicarboxamide] | – | – | – | ++ (NAUC “++” refers to an observed NAUC 170-140% of positive control) | +++ (NAUC “+++” refers to an observed NAUC>170% of positive control) | +++ (NAUC “+++” refers to an observed NAUC>170% of positive control)
5 | NNC(=O)[C@H]1[C@@H](C(=O)Nc2cc(Cl)cc(Cl)c2)[C@H]2CCCN2C12C(=O)Nc1c(Cl)cc(Cl)cc12 (stereo partly drawn) [Example 236, (1′R,2′S,7a′R)-5,7-dichloro-N-(3,5-dichlorophenyl)-2′-(hydrazinecarbonyl)-2-oxo-1′,2′,5′,6′,7′,7a′-hexahydrospiro[indoline-3,3′-pyrrolizine]-1′-carboxamide] | – | – | – | + (NAUC “+” refers to an observed NAUC <140% of positive control) | ++ (NAUC “++” refers to an observed NAUC 170-140% of positive control) | +++ (NAUC “+++” refers to an observed NAUC>170% of positive control)
6 | C[C@]1(O)C[C@@H]2[C@H](C(=O)Nc3cc(Cl)cc(Cl)c3)[C@H](C(N)=O)[C@@]3(C(=O)Nc4c(Cl)cc(Cl)cc43)N2C1 [Example 244, (1′R,2′S,6′S,7a′R)-5,7-dichloro-N1′-(3,5-dichlorophenyl)-6′-hydroxy-6′-methyl-2-oxo-1′,2′,5′,6′,7′,7a′-hexahydrospiro[indoline-3,3′-pyrrolizine]-1,2′-dicarboxamide] | – | – | – | + (NAUC “+” refers to an observed NAUC <140% of positive control) | + (NAUC “+” refers to an observed NAUC <140% of positive control) | + (NAUC “+” refers to an observed NAUC <140% of positive control)
7 | C[C@]1(O)C[C@@H]2[C@H](C(=O)Nc3cc(Cl)cc(Cl)c3)[C@H](C(=O)NO)[C@@]3(C(=O)Nc4c(Cl)cc(Cl)cc43)N2C1 [Example 245, (1′R,2′S,6′S,7a′R)-5,7-dichloro-N1′-(3,5-dichlorophenyl)-N2′,6′-dihydroxy-6′-methyl-2-oxo-1′,2′,5′,6′,7′,7a′-hexahydrospiro[indoline-3,3′-pyrrolizine]-1′,2′-dicarboxamide] | – | – | – | + (NAUC “+” refers to an observed NAUC <140% of positive control) | ++ (NAUC “++” refers to an observed NAUC 170-140% of positive control) | +++ (NAUC “+++” refers to an observed NAUC>170% of positive control)
8 | CONC(=O)[C@H]1[C@@H](C(=O)Nc2cc(Cl)cc(Cl)c2)[C@H]2C[C@](C)(O)CN2[C@]12C(=O)Nc1c(Cl)cc(Cl)cc12 [Example 246, (1′R,2′S,6′S,7a′R)-5,7-dichloro-N1′-(3,5-dichlorophenyl)-6′-hydroxy-N2′-methoxy-6′-methyl-2-oxo-1′,2′,5′,6′,7′,7a′-hexahydrospiro[indoline-3,3′-pyrrolizine]-1′,2′-dicarboxamide] | – | – | – | + (NAUC “+” refers to an observed NAUC <140% of positive control) | + (NAUC “+” refers to an observed NAUC <140% of positive control) | +++ (NAUC “+++” refers to an observed NAUC>170% of positive control)
9 | C[C@]1(O)CC2C(C(=O)Nc3cc(Cl)cc(Cl)c3)C(C(=O)NS(C)(=O)=O)C3(C(=O)Nc4c(Cl)cc(Cl)cc43)N2C1 (stereo partly drawn) [Example 247, (6′S)-5,7-dichloro-N1′-(3,5-dichlorophenyl)-6′-hydroxy-6′-methyl-N2′-(methylsulfonyl)-2-oxo-1′,2′,5′,6′,7′,7a′-hexahydrospiro[indoline-3,3′-pyrrolizine]-1′,2′-dicarboxamide] | – | – | – | + (NAUC “+” refers to an observed NAUC <140% of positive control) | ++ (NAUC “++” refers to an observed NAUC 170-140% of positive control) | +++ (NAUC “+++” refers to an observed NAUC>170% of positive control)
10 | CN(C)S(=O)(=O)NC(=O)C1C(C(=O)Nc2cc(Cl)cc(Cl)c2)C2C[C@](C)(O)CN2C12C(=O)Nc1c(Cl)cc(Cl)cc12 (stereo partly drawn) [Example 248, (6′S)-5,7-dichloro-N1′-(3,5-dichlorophenyl)-N2′-(N,N-dimethylsulfamoyl)-6′-hydroxy-6′-methyl-2-oxo-1′,2′,5′,6′,7′,7a′-hexahydrospiro[indoline-3,3′-pyrrolizine]-1,2′-dicarboxamide] | – | – | – | + (NAUC “+” refers to an observed NAUC <140% of positive control) | +++ (NAUC “+++” refers to an observed NAUC>170% of positive control) | +++ (NAUC “+++” refers to an observed NAUC>170% of positive control)
11 | CN(O)C(=O)[C@H]1[C@@H](C(=O)N(C)c2cc(Cl)cc(Cl)c2)[C@H]2CC(F)(F)CN2[C@]12C(=O)Nc1c(Cl)cc(Cl)cc12 [Example 260a, (1′R,2′S,3R,7a′R)-5,7-dichloro-N1′-(3,5-dichlorophenyl)-6′,6′-difluoro-N2′-hydroxy-N1′,N2′-dimethyl-2-oxo-1′,2′,5′,6′,7′,7a′-hexahydrospiro[indoline-3,3′-pyrrolizine]-1′,2′-dicarboxamide] | – | – | – | + (NAUC “+” refers to an observed NAUC <140% of positive control) | + (NAUC “+” refers to an observed NAUC <140% of positive control) | –
12 | CN(O)C(=O)[C@@H]1[C@@H](C(=O)N(C)c2cc(Cl)cc(Cl)c2)[C@H]2CC(F)(F)CN2[C@]12C(=O)Nc1c(Cl)cc(Cl)cc12 [Example 260b, (1′R,2′R,3R,7a′R)-5,7-dichloro-N1′-(3,5-dichlorophenyl)-6′,6′-difluoro-N2′-hydroxy-N1′,N2′-dimethyl-2-oxo-1′,2′,5′,6′,7′,7a′-hexahydrospiro[indoline-3,3′-pyrrolizine]-1′,2′-dicarboxamide] | – | – | – | + (NAUC “+” refers to an observed NAUC <140% of positive control) | + (NAUC “+” refers to an observed NAUC <140% of positive control) | + (NAUC “+” refers to an observed NAUC <140% of positive control)
13 | CN(C(=O)[C@H]1[C@H]2CC(F)(F)CN2[C@]2(C(=O)Nc3c(Cl)cc(Cl)cc32)[C@H]1C(=O)NS(=O)(=O)c1ccccc1)c1cc(Cl)cc(Cl)c1 [Example 261, (1′R,2′S,3R,7a′R)-5,7-dichloro-N1′-(3,5-dichlorophenyl)-6′,6′-difluoro-N1′-methyl-2-oxo-N2′-(phenylsulfonyl)-1′,2′,5′,6′,7′,7a′-hexahydrospiro[indoline-3,3′-pyrrolizine]-1,2′-dicarboxamide] | – | – | – | – | – | + (NAUC “+” refers to an observed NAUC <140% of positive control)
14 | CN(C(=O)[C@H]1[C@H]2CCCN2[C@]2(C(=O)Nc3c(Cl)cc(Cl)cc32)[C@H]1C(=O)O)c1cc(Cl)cc(Cl)c1 [Example 266] | – | – | – | + (NAUC “+” refers to an observed NAUC <140% of positive control) | +++ (NAUC “+++” refers to an observed NAUC>170% of positive control) | +++ (NAUC “+++” refers to an observed NAUC>170% of positive control)
